Reference: article PMC8125507, “Molecular Mechanism of Thymidylate Synthase Inhibition by N^4-Hydroxy-dCMP in View of Spectrophotometric and Crystallographic Studies” (International Journal of Molecular Sciences, 2021)

Legend:
Assay type in all cases: binding
[1] = target: T1, CeTS (Caenorhabditis elegans, UniProt Q9Y052); assay: X-ray crystal structure, soaked crystal, […] Å; conditions: apoenzyme crystal soaked with 36 mM ligand ca. 80 min, pH 5.6; no folate; active site of both subunits, non-covalent
T1 construct: recombinant, non-phosphorylated fraction; dimer; catalytic Cys197; residues 24-312 modelled
T1 sequence (Q9Y052 entry or part of it): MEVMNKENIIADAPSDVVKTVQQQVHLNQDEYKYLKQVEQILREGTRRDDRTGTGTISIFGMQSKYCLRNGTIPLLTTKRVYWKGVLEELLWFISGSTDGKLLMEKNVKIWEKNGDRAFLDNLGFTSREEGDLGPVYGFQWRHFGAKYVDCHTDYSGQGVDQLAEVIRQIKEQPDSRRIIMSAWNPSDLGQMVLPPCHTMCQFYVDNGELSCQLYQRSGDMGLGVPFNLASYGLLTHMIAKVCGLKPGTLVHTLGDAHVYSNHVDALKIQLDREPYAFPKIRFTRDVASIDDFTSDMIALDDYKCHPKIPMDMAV

[2] = target: T2, mTS (Mus musculus, UniProt P07607); assay: X-ray crystal structure, co-crystal soaked with meTHF, […] Å; conditions: pH 6.7; folate derivative also bound; active site of both subunits, non-covalent
T2 construct: gene Tyms; recombinant, non-phosphorylated fraction for crystals; dimer; catalytic Cys189; residues 21-307 modelled
T2 sequence (P07607 whole entry, the tested form may be a part): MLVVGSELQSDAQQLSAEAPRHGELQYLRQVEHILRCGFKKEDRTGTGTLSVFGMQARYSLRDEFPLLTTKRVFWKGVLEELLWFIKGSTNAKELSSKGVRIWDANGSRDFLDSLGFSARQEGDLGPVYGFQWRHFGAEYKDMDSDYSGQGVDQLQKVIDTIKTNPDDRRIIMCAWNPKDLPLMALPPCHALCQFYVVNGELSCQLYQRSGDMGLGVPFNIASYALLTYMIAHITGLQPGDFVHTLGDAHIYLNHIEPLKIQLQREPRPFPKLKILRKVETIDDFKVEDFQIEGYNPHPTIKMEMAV

[3] = target: T3, TspTS (Trichinella spiralis, UniProt Q9NDD3); assay: X-ray crystal structure, co-crystal, […] Å; conditions: co-crystallized with meTHF, pH 7.1; covalent to Cys189 Sγ via pyrimidine C(6); bound form reduced at C(5); no folate seen
T3 construct: gene ts; recombinant, non-phosphorylated fraction; dimer; catalytic Cys189; residues 18-307 modelled in part
T3 sequence (Q9NDD3 entry or part of it): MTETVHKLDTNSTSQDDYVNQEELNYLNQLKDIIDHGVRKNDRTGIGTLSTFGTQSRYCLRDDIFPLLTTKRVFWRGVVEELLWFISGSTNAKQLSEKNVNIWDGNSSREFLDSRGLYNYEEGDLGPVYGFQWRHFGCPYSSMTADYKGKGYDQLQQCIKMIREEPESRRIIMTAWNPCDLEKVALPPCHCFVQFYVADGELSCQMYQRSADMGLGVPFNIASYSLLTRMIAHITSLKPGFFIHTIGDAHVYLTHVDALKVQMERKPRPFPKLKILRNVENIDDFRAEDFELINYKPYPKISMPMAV

SMILES: O=c1nc(NO)ccn1[C@H]1C[C@H](O)[C@@H](COP(=O)(O)O)O1 [N^4-OH-dCMP, N^4-hydroxy-2′-deoxycytidine 5′-monophosphate]
- X-ray crystal structure, soaked crystal, 2.8 Å [1]: with N^4-OH-dCMP molecules in both active sites refined with full occupancy
- X-ray crystal structure, co-crystal soaked with meTHF, 2.13 Å [2]: N^4-OH-dCMP molecules are modeled with full occupancy
- X-ray crystal structure, co-crystal, 1.18 Å [3]: a clear electron density was present, identified as the N^4-OH-dCMP molecule
